Laboratory results taken from article PMC9230136 (Pharmaceutics, 2022).

What was measured:
MDA-MB-231 = experiment: Antiproliferative assay (resazurin, 72 h); assay type: cell-based, human; details: for IC50: Homo sapiens, MDA-MB-231, mean ± SE, 72 h
Description: (§1) Colon adenocarcinoma (HT-29) and T-cell leukemia (Jurkat) cells were grown in RPMI-1640 medium (Gibco, Milano, Italy). Promyelocytic leukemia cells (HL-60), non-small cell lung carcinoma (A549), cervix carcinoma (HeLa) and breast adenocarcinoma (MDA-MB-231) cells were grown in DMEM medium (Gibco, Milano, Italy). Both media were supplemented with 115 units/mL of penicillin G (Gibco, Milano, Italy), 115 μg/mL of streptomycin (Invitrogen, Milano, Italy) and 10% fetal bovine serum (Invitrogen, Milano, Italy). All the cell lines used were purchased from the American Type Culture Collection (ATCC, Manassas, VA, USA). Stock solutions (10 mM) of the compounds were obtained by dissolving them in DMSO.
(§2) The cells were seeded in 96-well plates at the appropriate density for each cell line. After 24 h, the cells were treated by performing serial 5-fold dilutions of the tested compounds starting from a concentration of 10 μM. All experimental conditions were tested in triplicate for statistical analysis. The plates were incubated for 72 h at 37 °C in a humidified 5% CO2 atmosphere. At the end of the incubation period, 10 μL of 100 μg/mL resazurin solution was added to each well; then, the plate was re-incubated for 3–4 h. The fluorescence of the wells in each plate was monitored using a Spark 10 M spectrophotometer (Tecan Group Ltd., Mannedorf, Switzerland) with a 535 nm excitation wavelength and a 600 nm emission wavelength.

HT-29 = experiment: Antiproliferative assay (resazurin, 72 h); assay type: cell-based, human; details: Homo sapiens, HT-29, mean ± SE, 72 h
Description: as §1, §2

Jurkat = experiment: Antiproliferative assay (resazurin, 72 h); assay type: cell-based, human; details: Homo sapiens, Jurkat, mean ± SE, 72 h
Description: as §1, §2

HeLa = experiment: Antiproliferative assay (resazurin, 72 h); assay type: cell-based, human; details: Homo sapiens, HeLa
Description: as §1, §2

A549 = experiment: Antiproliferative assay (resazurin, 72 h); assay type: cell-based, human; details: Homo sapiens
Description: as §1, §2

Compound	IC50 (MDA-MB-231; Table 2)	IC50 (HT-29; Table 2)	IC50 (Jurkat; Table 2)	IC50 (HeLa; Table 2, mean ± SE)	IC50 (A549; A549, Table 2, mean ± SE)	melting point	IC50 (MDA-MB-231; Table 1)	IC50 (HT-29; Table 1)	IC50 (Jurkat; Table 1)	IC50 (HeLa; Table 1, mean ± SE)	IC50 (A549; A549, Table 1, mean ± SE)	fold more active than 7i (MDA-MB-231; MDA-MB-231 cells)
Cc1cc(Nc2cccc(Br)c2)n2nc(NCc3ccc4c(c3)OCO4)nc2n1 [Compound 8m, N^2-(Benzo[d][1,3]dioxol-5-ylmethyl)-N^7-(3-bromophenyl)-5-methyl-[1,2,4]triazolo [1,5-a]pyrimidine-2,7-diamine]	3990 ± 60 nM	2240 ± 120 nM	1180 ± 110 nM	1280 ± 300 nM	2320 ± 230 nM	150 to 152 °C						
Cc1cc(Nc2ccc(C(F)(F)F)cc2)n2nc(NCc3ccc4c(c3)OCO4)nc2n1 [Compound 8n, N^2-(Benzo[d][1,3]dioxol-5-ylmethyl)-N^7-(4-trifluoromethylphenyl)-5-methyl-[1,2,4]triazolo [1,5-a]pyrimidine-2,7-diamine]	6130 ± 1460 nM	5180 ± 270 nM	1600 ± 290 nM	3640 ± 1010 nM	3270 ± 570 nM	158 to 160 °C						
COc1cccc(CNc2nc3nc(C)cc(Nc4cc(OC)c(OC)c(OC)c4)n3n2)c1 [Compound 7t, N^2-(3-Methoxybenzyl)-5-methyl-N^7-(3,4,5-trimethoxyphenyl)-[1,2,4]triazolo [1,5-a]pyrimidine-2,7-diamine]						150 to 152 °C	1780 ± 150 nM	1040 ± 80 nM	1650 ± 110 nM	880 ± 90 nM	1650 ± 140 nM	
COc1cc(Nc2cc(C)nc3nc(NCc4ccncc4)nn23)cc(OC)c1OC [Compound 7j, 5-Methyl-N^2-(pyridin-4-ylmethyl)-N^7-(3,4,5-trimethoxyphenyl)-[1,2,4]triazolo [1,5-a]pyrimidine-2,7-diamine]						184 to 186 °C	59 ± 10 nM	2530 ± 250 nM	9640 ± 800 nM	3010 ± 300 nM	> 10000 nM	46 fold
COc1cc(Nc2cc(C)nc3nc(NCc4ccccc4)nn23)cc(OC)c1OC [Compound 7i, N^2-Benzyl-5-methyl-N^7-(3,4,5-trimethoxyphenyl)-[1,2,4]triazolo [1,5-a]pyrimidine-2,7-diamine]						173 to 175 °C	2710 ± 310 nM	3530 ± 140 nM	4400 ± 380 nM	3200 ± 240 nM	3750 ± 260 nM	
COc1cc(Nc2cc(C)nc3nc(Nc4ccc(C)cc4)nn23)cc(OC)c1OC [Compound 7g, 5-Methyl-N2-(p-tolyl)-N7-(3,4,5-trimethoxyphenyl)-[1,2,4]triazolo [1,5-a]pyrimidine-2,7-diamine]						234 °C	1510 ± 140 nM	940 ± 110 nM	850 ± 20 nM	500 ± 40 nM	1550 ± 190 nM	
Cc1cc(Nc2ccc(F)c(Cl)c2)n2nc(NCc3ccc(Cl)cc3)nc2n1 [Compound 8a, N^7-(3-Chloro-4-fluorophenyl)-N^2-(4-chlorobenzyl)-5-methyl-[1,2,4]triazolo [1,5-a]pyrimidine-2,7-diamine]	390 ± 40 nM	340 ± 20 nM	500 ± 310 nM	190 ± 50 nM	320 ± 60 nM	186 to 188 °C						
COc1ccc(CNc2nc3nc(C)cc(Nc4cc(OC)c(OC)c(OC)c4)n3n2)cc1OC [Compound 7v, N^2-(3,4-Dimethoxybenzyl)-5-methyl-N^7-(3,4,5-trimethoxyphenyl)-[1,2,4]triazolo [1,5-a]pyrimidine-2,7-diamine]						194 to 196 °C	1220 ± 150 nM	> 10000 nM	1220 ± 90 nM	560 ± 70 nM	1000 ± 90 nM	
C#Cc1cccc(Nc2cc(C)nc3nc(NCc4ccc5c(c4)OCO5)nn23)c1 [Compound 8p, N^2-(Benzo[d][1,3]dioxol-5-ylmethyl)-N^7-(3-ethynylphenyl)-5-methyl-[1,2,4]triazolo [1,5-a]pyrimidine-2,7-diamine]	3090 ± 570 nM	2080 ± 140 nM	2380 ± 180 nM	1600 ± 70 nM	1780 ± 510 nM	165 to 168 °C						
COc1cc(Nc2cc(C)nc3nc(NCCc4ccccc4)nn23)cc(OC)c1OC [Compound 7z, 5-Methyl-N^2-phenethyl-N^7-(3,4,5-trimethoxyphenyl)-[1,2,4]triazolo [1,5-a]pyrimidine-2,7-diamine]						201 to 203 °C	940 ± 90 nM	1890 ± 160 nM	1990 ± 240 nM	860 ± 100 nM	2010 ± 160 nM	
Cc1cc(Nc2ccc(Cl)c(Cl)c2)n2nc(NCc3ccc4c(c3)OCO4)nc2n1 [Compound 8k, N^2-(Benzo[d][1,3]dioxol-5-ylmethyl)-N^7-(3,4-dichlorophenyl)-5-methyl-[1,2,4]triazolo [1,5-a]pyrimidine-2,7-diamine]	2040 ± 1030 nM	1380 ± 60 nM	950 ± 120 nM	720 ± 340 nM	2360 ± 340 nM	166 to 168 °C						
